The test has as its system CEM cells HIV-1 protection, formazan growth assay. Put plainly: NCI AIDS Antiviral Assay. As to conditions: for IC50: measured here: growth of uninfected CEM cells. The procedure, abridged:
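CEM (human) cells, HIV-1 infected vs uninfected, 5-point dosing, formazan growth read-out. Retest threshold 50% protection.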

Data on 73 compounds can be found in PubChem BioAssay AID179 (DTP/NCI, 2004).

Activity calls are given as the source filed them.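 The calls were made as follows: active = compounds giving half or more protection of infected cells from virus-caused growth loss, again on retest; inactive = the rest.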 Where a SMILES comes first, the peptide text is derived from it. The star is where a group is joined. Cbz = O=C(OCc1ccccc1)* Some results are limits rather than exact numbers.

As to `COc1cc2c(cc1O)[C@H](Cc1ccc(Oc3cc(C[C@H]4c5cc(OC)c(OC)cc5CCN4C)ccc3OC)cc1)NCC2`, the result was inactive.
For `Cc1cc(C)nc(Nc2nc3ccc([N+](=O)[O-])cc3[nH]2)n1`, the EC50 (usually the concentration at which the effect is half-maximal) is greater than 871 µM and the IC50 (commonly the concentration that inhibits the measured activity by half) stood at 407 µM.
In the case of `O=C(NCCCCCCO)c1cccc2cc3ccccc3nc12`, the EC50 is greater than 200 µM and the half-maximal inhibitory concentration (IC50) amounted to 18.6 µM.
Turning to `CCc1cccc(C)c1N1C(=O)C(=O)C(c2nc3ccccc3o2)/C(=N/NC(=S)NN)C1=O` (stereo unspecified), the outcome was inactive.
Turning to `CN(C)C(N)=NC#N`, the EC50 was greater than 794 µM and the concentration for half-maximal inhibition (IC50) was greater than 794 µM.
In the case of `O=c1[nH]c2nc(SCc3ccccc3)n(Cc3ccccc3)c2c(=O)n1OS(=O)(=O)c1ccccc1`, the EC50 is greater than 200 µM and the 50% inhibitory concentration (IC50) stood at 75.9 µM.
As for `O=C(OCc1ccccc1)N(Cc1ccccc1)S(=O)(=O)c1ccccc1`, the EC50 was greater than 200 µM and the IC50 is greater than 200 µM.
For the compound `CCc1cc(-c2ccco2)c(C#N)c(=S)n1C1OC(COC(C)=O)C(OC(C)=O)C(OC(C)=O)C1OC(C)=O` (stereo unspecified), the EC50 was greater than 200 µM and the half-inhibitory concentration (IC50) came to 79.4 µM.
For `C=C1C2Oc3ccccc3C1N(c1ccccc1)O2` (stereo unspecified), the outcome was inactive.
Turning to `CC1C2C=CC1C(c1c3ccc(=O)c(O)c-3oc3c(O)c(O)ccc13)C2C(=O)O` (stereo unspecified), the 50% effective concentration (EC50) is 2.04 µM and the IC50 was greater than 200 µM.
Consider `CN(C)c1cccc2c(S(=O)(=O)NCC(=O)O)cccc12`, for which the result was inactive.
Take `O=C(NCCNCCNC(=O)c1cc(-c2ccccc2)nc2ccccc12)c1cc(-c2ccccc2)nc2ccccc12`: the EC50 is greater than 20 µM and the IC50 was 3.47 µM.
As for `CSc1nc2c(c(N(C)C)n1)C(O)n1c(nc3ccccc31)S2` (stereo unspecified), the EC50 was greater than 200 µM and the IC50 was greater than 200 µM.
`Cc1cn(C2CC(N=[N+]=[N-])C(COC(=O)CCCCCCCCCCCOc3ccccc3)O2)c(=O)[nH]c1=O` (stereo unspecified): the EC50 is 0.0501 µM and the IC50 amounted to 102 µM.
On the same counts, the results for `N#Cc1nc(C2SCCCS2)oc1N` are greater than 200 µM and greater than 200 µM.
Take `COc1cc(C(C)(C)C)c(OC(=O)/C=C/C(=O)O/C=C/[N+](=O)[O-])c(C(C)(C)C)c1`: the EC50 was greater than 200 µM and the IC50 was determined as 31.6 µM.
For the compound `O=C(Nc1nc2ccc(Cl)cc2[nH]1)c1ccccc1O`, the EC50 was greater than 200 µM and the IC50 turned out to be 12 µM.
On to `CN1C(=O)C2C(C1=O)[C@H]1c3ccccc3C=CN1[C@@H]2C(=O)c1ccccc1` (stereo partly specified), for which the EC50 is greater than 200 µM and the IC50 came out at 148 µM.
Turning to `CCCCn1cnc2ccc3[nH]c(C)nc3c2c1=O`, the EC50 was greater than 759 µM and the IC50 was 55 µM.
On the same counts, the results for `CCC1OC2CS(=O)(=O)CC2O1` (stereo unspecified) are greater than 1290 µM and greater than 1290 µM.
As to `O=S(Cc1ccccc1)c1ccccc1Cn1cccc1` (stereo unspecified), the EC50 is greater than 200 µM and the IC50 stood at 158 µM.
Take `CC1(C)CCC[C@]2(C)c3occc3CCC12` (stereo partly specified): the result was inactive.
For the compound `CC(C)(C)OC(=O)Nc1nnc(S(N)(=O)=O)s1`, the EC50 is 182 µM and the IC50 is greater than 200 µM.
For the compound `Cc1nc(CC#N)n[nH]1`, the EC50 was greater than 200 µM and the 50% inhibitory concentration (IC50) is greater than 200 µM.
Turning to `CCCCNC1C2CCC(C)(C1O)C2(C)C` (stereo unspecified), the EC50 was greater than 200 µM and the concentration for half-maximal inhibition (IC50) stood at 174 µM.
Take `O=c1[nH]c(=O)n(Cc2ccccc2)cc1B(O)O`: the EC50 is greater than 200 µM and the IC50 was greater than 200 µM.
For the compound `C=C1C2CCC3(CCC4C5(C)CCCC4(CN(CCO)C5)C3C2)C1O` (stereo unspecified), the result was inactive.
Take `O=S1(=O)c2ccccc2NC(=S)CC1c1ccccc1` (stereo unspecified): the EC50 is greater than 200 µM and the IC50 is 129 µM.
On to `Nc1ccc2oc(=O)c(C(=O)O)cc2c1`, for which the EC50 is greater than 363 µM and the IC50 was found to be 162 µM.
Regarding `CCCCCCCCOC1N(C2CC(N=[N+]=[N-])C(CO)O2)C(=O)NC(=O)[C@]1(C)Cl` (stereo partly specified), the EC50 was greater than 200 µM and the concentration for half-maximal inhibition (IC50) came out at 37.2 µM.
The like results for `CC1=Nc2sc3c(c2C2=NCCN12)CCCC3` were, in that order, greater than 200 µM and 34.7 µM.
The like results for `CCOC(=O)c1c(-c2ccccc2)nc2c(OC)nccn12` were, in that order, greater than 200 µM and 126 µM.
Regarding `CC1CC(C)(C)OC(c2ccco2)O1` (stereo unspecified), the EC50 is greater than 200 µM and the half-inhibitory concentration (IC50) was greater than 200 µM.
Take `O=C(O)C(Cc1ccccc1)NC(=O)C1CCCN1C(=O)OCc1ccccc1` (stereo not drawn) (Cbz-Pro-Phe-OH; configuration not given here): the EC50 is greater than 631 µM and the 50% inhibitory concentration (IC50) was greater than 631 µM.
For the compound `O=[N+]([O-])C(/C=C(\Cl)[N+](=O)[O-])=C(N1CCOCC1)N1CCOCC1`, the EC50 was greater than 200 µM and the half-maximal inhibitory concentration (IC50) was determined as 110 µM.
Take `NC1=NC(c2ccccc2)CC(c2cc(Cl)ccc2O)=N1` (stereo unspecified): the EC50 is greater than 200 µM and the half-maximal inhibitory concentration (IC50) came out at 12.6 µM.
As for `O=C(O)c1nc2ccccc2n2cccc12`, the EC50 is greater than 200 µM and the half-inhibitory concentration (IC50) was greater than 200 µM.
As for `Cn1c2ccccc2c2nnc(N/N=C/c3ccccn3)nc21`, the EC50 is greater than 200 µM and the IC50 was found to be 0.115 µM.
As to `CC(C)(C)[Si](C)(C)OCCCCC1CC2(S(=O)(=O)C3=CC=C=C=C3)ON1CC2S(=O)(=O)c1ccccc1` (stereo unspecified), the EC50 was greater than 45.7 µM and the half-maximal inhibitory concentration (IC50) was greater than 45.7 µM.
On to `CC(C)(C)Cc1cssc1=S`, for which the EC50 was greater than 200 µM and the IC50 was greater than 200 µM.
Turning to `CCCCCCN(CCCCCC)C1=CC(=O)C(=O)c2ccccc21`, the EC50 was greater than 95.5 µM and the IC50 amounted to 16.6 µM.
For the compound `Clc1ccc(C2=C(c3ccccc3)C(c3ccc(Cl)cc3)N3C(=N[C@H]4CCCC[C@@H]43)N2)cc1` (stereo partly specified), the EC50 was greater than 200 µM and the IC50 stood at 20.9 µM.
Turning to `C#CC(O)/C=C/CCCCCCCCC/C=C/CCCCCCCCC/C=C/C(O)C#C` (stereo unspecified), the result was inactive.
As for `COC(=O)NC(Nc1ccc(Cl)cc1Cl)(C(F)(F)F)C(F)(F)F`, the outcome was inactive.
For `COC1O[C@@H]2CCN3C(=O)[C@@H](OC(=O)c4ccc([N+](=O)[O-])cc4)[C@H]1C23` (stereo partly specified), the EC50 was greater than 200 µM and the half-inhibitory concentration (IC50) is greater than 200 µM.
As for `O=C(CC(C(=O)c1cccs1)c1ccsc1)c1ccsc1` (stereo unspecified), the EC50 is greater than 200 µM and the concentration for half-maximal inhibition (IC50) came out at 11.5 µM.
For `COc1cc2cc(OC)c3cc4c(cc3c2c(OC)c1OC)OCO4`, the EC50 is greater than 39.8 µM and the concentration for half-maximal inhibition (IC50) is greater than 39.8 µM.
Take `O=C1CCC(c2ccccc2)C(O)(C(=O)O)C1` (stereo unspecified): the EC50 is greater than 389 µM and the half-inhibitory concentration (IC50) was greater than 389 µM.
On to `O=C1C=C(Br)C(=O)C(Br)=C1`, for which the EC50 was greater than 257 µM and the IC50 worked out at 23.4 µM.
On to `CCN(CC)CCOC(=O)c1cc2ccccc2n1-c1ccccc1`, for which the EC50 is greater than 200 µM and the IC50 turned out to be 79.4 µM.
On the same counts, the results for `O=C(Nc1ccc(Cl)cc1)C(=O)Nc1ccc(Cl)cc1` are greater than 200 µM and greater than 200 µM.
Consider `CC(=O)OC1CCC2C3CCC4(C)C(=O)CCC4C3C3OC23C1` (stereo unspecified), for which the EC50 is greater than 282 µM and the 50% inhibitory concentration (IC50) is 209 µM.
`CCCc1cc(=O)oc2c3c(c4c(c12)OC(C)(C)C=C4)O[C@H](C)[C@@H](C)[C@H]3O[Si](C)(C)C(C)(C)C`: the EC50 is greater than 200 µM and the IC50 was greater than 200 µM.
On to `Oc1ccc(C2=CSC3=NCCN23)cc1`, for which the result was inactive.
Still for that read-out and setting: the result for `O=C(/C=C(\Cl)c1c[nH]c(=O)[nH]c1=O)c1ccccc1` reads “inactive”.
`CCCCC(C(=O)CCC(=O)Nc1ccc(Cl)c(Cl)c1)C(=O)C(C)C` (stereo unspecified): the EC50 was greater than 324 µM and the IC50 came out at 275 µM.
For the compound `CC(=O)N(C(C)=O)c1ccc(-c2cccs2)oc1=O`, the EC50 is greater than 200 µM and the 50% inhibitory concentration (IC50) was greater than 200 µM.
Turning to `CCOc1ccccc1NC(=O)C(=O)C(/C(=N/N)C(=O)OC)c1nc2ccc([N+](=O)[O-])cc2[nH]c1=O` (stereo unspecified), the EC50 was greater than 263 µM and the IC50 was greater than 263 µM.
`COC(=O)/C(=C\c1cn(C(C)=O)c2ccccc12)P(=O)(OC)OC`: the EC50 was greater than 200 µM and the IC50 turned out to be 33.1 µM.
Regarding `C=C(C)Cn1c(=O)n(CC(=C)C)c(=O)n(CC(=C)C)c1=O`, the EC50 is greater than 200 µM and the IC50 worked out at 81.3 µM.
In the case of `COc1cc(/C=C2\C(=O)N(C(=O)Cc3ccccc3)N=C2C)cc(OC)c1OC`, the EC50 was greater than 25.1 µM and the IC50 is greater than 25.1 µM.
On to `Cc1cc(N(CCC#N)S(=O)(=O)c2ccccc2)ccc1C=Nc1ccc(C(=O)O)cc1`, for which the EC50 was greater than 151 µM and the IC50 amounted to 85.1 µM.
With `CC1=C(S(=O)c2ccc(C)cc2)CCC2(CCCCO2)O1` (stereo unspecified), the EC50 is greater than 200 µM and the IC50 is 107 µM.
The like results for `FC(F)(F)C(F)(F)c1nnc(C(F)(F)C(F)(F)F)o1` were, in that order, greater than 200 µM and greater than 200 µM.
On the same counts, the results for `COC(=O)C(=O)C(C(=O)C=C(C)C)C(=O)C(=O)Nc1cc(C(F)(F)F)ccc1Cl` (stereo unspecified) are greater than 83.2 µM and greater than 83.2 µM.
As to `CN(C)CCCCNc1c2c(nc3c(Cl)cccc13)CCC2`, the EC50 is greater than 794 µM and the half-maximal inhibitory concentration (IC50) was 16.6 µM.
Regarding `c1csc(-c2cc(-c3cccs3)c(-c3cccs3)s2)c1`, the EC50 is greater than 200 µM and the concentration for half-maximal inhibition (IC50) is 38.9 µM.
For the compound `CC(C)(C)c1ccc(C2(Br)C(=O)NC(=O)C2=O)cc1` (stereo unspecified), the EC50 is greater than 200 µM and the half-inhibitory concentration (IC50) was greater than 200 µM.
`N#CC(C#N)=C(N)/C(C#N)=C/c1ccc(O)c(O)c1`: the EC50 is greater than 200 µM and the 50% inhibitory concentration (IC50) is 61.7 µM.
Consider `CCOC(=O)CCc1cn2cc(Br)nc(OC)c2n1`, for which the EC50 is greater than 200 µM and the IC50 came out at 25.1 µM.
With `CCOC(=O)c1[nH]c(-c2[nH]c(-c3[nH]c(-c4[nH]c(C(=O)OCC)c(C)c4C(=O)OCC)c(C(=O)OCC)c3C)c(C)c2C(=O)OCC)c(C(=O)OCC)c1C`, the EC50 is greater than 200 µM and the half-maximal inhibitory concentration (IC50) is greater than 200 µM.
For the compound `N[C@@H]1C[C@H](N)c2c(Cl)sc(Cl)c21`, the EC50 is greater than 200 µM and the IC50 was determined as 141 µM.
On the same counts, the results for `C=[N+]([O-])CCC1(O)C(CO[Si](C)(C)C(C)(C)C)OC(n2ccc(=O)[nH]c2=O)C1O[Si](C)(C)C(C)(C)C` (stereo unspecified) are greater than 200 µM and 12 µM.
